Legend:
HDAC = settings: cited from earlier work
[1] = Aqueous stability assay in DPBS buffer (HPLC); assay type: physicochemical; settings: DPBS pH 7.4, 10% DMSO, room temperature, 72 hours
Protocol: and A6. Compounds were diluted in DPBS buffer (pH = 7.4; final DMSO concentration: 10%) and the remaining compound content was analyzed by HPLC. The peak area at 0 h was used for normalization.
Mean ± standard deviation of n = 2 replicates.
Figure S4. Analysis of time dependent degradation by 1j of HDAC1 (A) and HDAC6 (B) by Simple Western™ immunoassay analysis of MM.1S cell lysates. MM.1S cells were treated with 1j (10 µM) or vehicle (DMSO) for the indicated time period. Quantification of protein levels presented as mean ± standard deviation of n = 3 biological replicates. Si gnificance compared to vehicle: * = p≤0.05 , […]
2.5. Aqueous Stability Assay
For stability testing in aqueous solution, a 10-fold concentrated DMSO solution of the respective compounds was diluted in DPBS to generate a 10 µM concentration (final DMSO content of 10%).
Samples of the aqueous solutions were taken after 0, 24, 48, and 72 h at room temperature and the amounts of the parental compound and potential fragments were monitored by HPLC gradient A (see 3.1 General Information). The peak area of the 0 h sample was used for normalization. All compounds were tested in duplicates and GraphPad Prim was used for evaluation and data visualization.
The cell lysis was performed as descripted in 3.2. Simple Western Immunoassay. […]
Afterwards, proteins were transferred with the Trans -Blot Turbo Transfer System (Catalog# 1704150, Bio-Rad) to Immobilon-FL PVDF membranes (Catalog# IPFL00005, Mill ipore Merck, Burlington, MA, USA) at 1.0 A for 30 min and treated with 5% milk-powder solution for 1 h at room temperature under slight agitation. […] The ChemiDoc XRS+ System (Catalog# 1708265 , Bio-Rad) was used for detection and Image Lab Software 6.1 (Bio-Rad) for quantification. […]
In vitro inhibitory activities against HDAC1, 2 , and 6 were measured using a previously published protocol.[3] In vitro inhibitory activities against HDAC4 were measured using a previously published protocol with slight modifications. […]

MDA-MB-231 cells = test: Clonogenic growth assay; assay type: cell-based, human; settings: 10 μM for 48 h, nine days of growth
Protocol: Figure 9 Clonogenic growth assay of DCAF11‐recruiting PROTACs. MDA‐MB‐231 cells were treated with 10 μM of the respective compound or vehicle (DMSO) for 48 hours. (A) Representative images of crystal violet stained colonies after nine days of growth. (B) Quantification of counted colonies, presented as mean ± standard deviation of three biological replicates, each performed in triplicates. Significance of quantification compared to vehicle: ns=p≥0.05; **=p≤0.01 and ***=p≤0.001. […]
Subsequently, cells were harvested and
plated in 6-well plates at a density of 750 cells per well in triplicates. The cell culture medium was
changed after five days. Nine days after plating, the colonies were carefully washed with 500 µL DPBS
and stained with 500 µL crystal violet solution (0.5% in methanol). After 30 minutes of incubation at
room temperature, the wells were gently rinsed with deionized water. After counting the formed
colonies, GraphPad Prism (GraphPad Software) was used for bar graph creation. Significance testing
was performed with a one-way analysis of variance (ANOVA). Dunnett’s post-hoc test was employed
to obtain significance levels of each mean compared to a reference mean value.

MM.1S cells = test: Cell cycle analysis by PI staining and flow cytometry; assay type: cell-based, human; settings: 10 μM, 48 h
Protocol: GraphPad Prism (GraphPad Software). […]
Biotech), resuspended in 1 mL EtOH/D PBS (7/3 v/v), and fixed for 30 min at 4 °C. The samples were rehydrated with DPBS and treated with 5 µg /mL RNAse ( Catalog# EN0531 , ThermoFisher Scientific Inc.) for 15 min at room temperature. The staining was performed with 3 µM propidium iodide (in DPBS) for 15 min at room temperature and analyzed by flow cytometry ( Guava easyCyteTM, Luminex, […]
Lakes, NJ, USA), using the Watson Pragmatic algorithm.[6] GraphPad Prism (GraphPad Software) was used for normalization, statistical analysis, and bar graph creation. Significance testing was performed with a one-way analysis of variance (ANOVA). Dunnett’s post-hoc test was employed to obtain […]
Final DMSO concentration was 0.1%.
Staining was performed with
Fluorescence was measured by flow cytometry (Guava® easyCyteTM, Luminex, Austin, Texas). GraphPad Prism (GraphPad Software) was used for normalization, statistical analysis, and bar graph creation. Significance testing was performed with a one-way analysis of variance (ANOVA).
Subsequently, cells were harvested and […]
After 30 minutes of incubation at […]
Dunnett’s post-hoc test was employed

decomposition / reduction in content in DPBS buffer [1]	SMILES	degraded HDAC isoforms (HDAC)	reduction of colonies (clonogenic growth) (MDA-MB-231 cells)	effect on cell cycle phases (MM.1S cells)
–	O=C(CCCCCCC(=O)N/N=C/c1ccc(OCCOCCOCCn2cc(CNc3cccc4c3C(=O)N(C3CCC(=O)NC3=O)C4=O)nn2)cc1)NO (centres unmarked) [I]	only HDAC6 was degraded	–	–
–	Cc1ncsc1-c1ccc([C@@H](C)NC(=O)[C@H]2C[C@H](O)CN2C(=O)[C@H](NC(=O)CCOCCOCCN(CCc2c[nH]c3ccccc23)Cc2ccc(/C=C/C(=O)NO)cc2)C(C)(C)C)cc1 [V]	degraded HDAC3 and 8	–	–
remained intact	O=C(CCCCCCC(=O)Nc1ccccc1)NO [Vorinostat, vorinostat, reference compound]	–	less pronounced and not significant	stronger effects on the different phases of the cell cycle

Source: article PMC12091851, “Replacing a Cereblon Ligand by a DDB1 and CUL4 Associated Factor 11 (DCAF11) Recruiter Converts a Selective Histone Deacetylase 6 PROTAC into a Pan‐Degrader” (Chemmedchem, 2025)
